According to patent publication US7205305B2, “Inhibitors of p38” (Vertex Pharmaceuticals Incorporated, priority 1996, dated 2007):

Columns and labels:
[1] = target: activated p38 (Homo sapiens, UniProt Q16539); assay: Inhibition of phosphorylation of EGF receptor peptide ("kinase"); format: biochemical; details: inhibition of phosphorylation of EGF receptor peptide by activated p38
Experimental: This assay was carried out in the presence of 10 mM MgCl2, 25 mM β-glycerophosphate, 10% glycerol and 100 mM HEPES buffer at pH 7.6. […] The stock solution was aliquotted into vials. A fixed volume of DMSO or inhibitor in DMSO (final concentration of DMSO in reaction was 5%) was introduced to each vial, mixed and incubated for 15 minutes at room temperature. EGF receptor peptide, […], a phosphoryl acceptor in p38-catalyzed kinase reaction (1), was added to each vial to a final concentration of 200 μM. The kinase reaction was initiated with ATP (100 μM) and the vials were incubated at 30° C. After 30 minutes, the reactions were quenched with equal volume of 10% trifluoroacetic acid (TFA).
The phosphorylated peptide was quantified by HPLC analysis. Separation of phosphorylated peptide from the unphosphorylated peptide was achieved on a reverse phase column (Deltapak, 5 μm, C18 100D, part no. 011795) with a binary gradient of water and acteonitrile, each containing 0.1% TFA.

[2] = tested on: IL-1 production in LPS-stimulated PBMCs; assay: Inhibition of IL-1 production in LPS-stimulated PBMCs ("cell"); format: cell-based, human; details: Homo sapiens, PBMC
Experimental: (§1) Inhibitors were serially diluted in DMSO from a 20 mM stock. At least 6 serial dilutions were prepared. Then 4× inhibitor stocks were prepared by adding 4 μl of an inhibitor dilution to 1 ml of RPMI1640 medium/10% fetal bovine serum. The 4× inhibitor stocks contained inhibitor at concentrations of 80 μM, 32 μM, 12.8 μM, 5.12 μM, 2.048 μM, 0.819 μM, 0.328 μM, 0.131 μM, 0.052 μM, 0.021 μM etc. The 4× inhibitor stocks were pre-warmed at 37° C. until use.
(§2) Fresh human blood buffy cells were separated from other cells in a Vacutainer CPT from Becton & Dickinson (containing 4 ml blood and enough DPBS without Mg^2+/Ca^2+ to fill the tube) by centrifugation at 1500×g for 15 min. Peripheral blood mononuclear cells (PBMCs), located on top of the gradient in the Vacutainer, were removed and washed twice with RPMI1640 medium/10% fetal bovine serum. PBMCs were collected by centrifugation at 500×g for 10 min. The total cell number was determined using a Neubauer Cell Chamber and the cells were adjusted to a concentration of 4.8×10^6 cells/ml in cell culture medium (RPMI1640 supplemented with 10% fetal bovine serum).
(§3) We placed 100 μl of cell suspension or whole blood in each well of a 96-well cell culture plate. Then we added 50 μl of the 4× inhibitor stock to the cells. Finally, we added 50 μl of a lipopolysaccharide (LPS) working stock solution (16 ng/ml in cell culture medium) to give a final concentration of 4 ng/ml LPS in the assay. The total assay volume of the vehicle control was also adjusted to 200 μl by adding 50 μl cell culture medium. The PBMC cells or whole blood were then incubated overnight (for 12–15 hours) at 37° C./5% CO2 in a humidified atmosphere.
(§4) The next day the cells were mixed on a shaker for 3–5 minutes before centrifugation at 500×g for 5 minutes. Cell culture supernatants were harvested and analyzed by ELISA for levels of IL-1b (R & D Systems, Quantikine kits, #DBL50), TNF-α (BioSource, #KHC3012), IL-6 (Endogen, #EH2-IL6) and IL-8 (Endogen, #EH2-IL8) according to the instructions of the manufacturer. The ELISA data were used to generate dose-response curves from which IC50 values were derived.

[3] = tested on: TNF production in LPS-stimulated PBMCs; assay: Inhibition of TNF production in LPS-stimulated PBMCs ("cell"); format: cell-based, human; details: Homo sapiens, PBMC
Experimental: as §1, §2, §3, §4

Chain of activated p38 (Q16539 whole entry): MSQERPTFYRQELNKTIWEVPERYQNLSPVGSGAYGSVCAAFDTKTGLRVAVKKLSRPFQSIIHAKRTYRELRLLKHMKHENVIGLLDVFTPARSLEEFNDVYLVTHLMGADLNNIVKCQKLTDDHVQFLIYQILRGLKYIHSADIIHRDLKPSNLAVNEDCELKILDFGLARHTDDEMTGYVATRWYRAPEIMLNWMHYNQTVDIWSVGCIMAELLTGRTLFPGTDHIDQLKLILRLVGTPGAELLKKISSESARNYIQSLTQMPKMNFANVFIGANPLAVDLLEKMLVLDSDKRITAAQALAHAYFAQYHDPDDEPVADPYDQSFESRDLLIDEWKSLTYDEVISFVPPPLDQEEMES

Q: Which IC50 [1] does the source give for `O=c1ncn2nc(Sc3ccccc3)ccc2c1-c1ccccc1Cl` [Compound 7] here?
A: ≥ 1000 nM

Q: And the IC50 [2]?
A: ≥ 500 nM

Q: What about the IC50 [3] of the same molecule?
A: ≥ 500 nM

Q: How did the IC50 [1] turn out when `Cc1ccccc1-c1c(=O)ncn2nc(Sc3ccccc3)ccc12` [Compound 8] was run?
A: ≥ 1000 nM

Q: What about the IC50 [2] of the same molecule?
A: ≥ 500 nM

Q: And the IC50 [3]?
A: ≥ 500 nM

Q: With `O=c1ncn2nc(Sc3ccccc3)ccc2c1-c1ccc(Cl)c(Cl)c1` [Compound 9] as the molecule, how does the IC50 [1] read?
A: ≥ 1000 nM

Q: What about the IC50 [2] of the same molecule?
A: ≥ 500 nM

Q: What about the IC50 [3] of the same molecule?
A: ≥ 500 nM

Q: How did the IC50 [1] turn out when `COc1ccccc1-c1c(=O)ncn2nc(Sc3ccccc3)ccc12` [Compound 11] was run?
A: ≥ 1000 nM

Q: And the IC50 [2]?
A: ≥ 500 nM

Q: And the IC50 [3]?
A: ≥ 500 nM

Q: How did the IC50 [1] turn out when `Cc1c(Sc2ccccc2)nn2cnc(=O)c(-c3c(Cl)cccc3Cl)c2c1C` [Compound 13] was run?
A: ≥ 1000 nM

Q: What about the IC50 [2] of the same molecule?
A: ≥ 500 nM

Q: What about the IC50 [3] of the same molecule?
A: ≥ 500 nM

Q: With `Cc1ccc(Sc2ccc3c(-c4c(Cl)cccc4Cl)c(=O)ncn3n2)cc1` [Compound 14] as the molecule, how does the IC50 [1] read?
A: ≥ 1000 nM

Q: And the IC50 [2]?
A: 100 to 500 nM

Q: What about the IC50 [3] of the same molecule?
A: ≥ 500 nM

Q: Which results are given for `Cc1cccc(Sc2ccc3c(-c4c(Cl)cccc4Cl)c(=O)ncn3n2)c1` [Compound 15]?
A: IC50 [1]: ≥ 1000 nM; IC50 [2]: 100 to 500 nM; IC50 [3]: 100 to 500 nM

Q: How did the IC50 [1] turn out when `O=c1ncn2nc(Sc3ccc(Cl)c(Cl)c3)ccc2c1-c1c(Cl)cccc1Cl` [Compound 16] was run?
A: 100 to 1000 nM

Q: What about the IC50 [2] of the same molecule?
A: ≥ 500 nM

Q: And the IC50 [3]?
A: 100 to 500 nM

Q: Which results are given for `O=c1ncn2nc(Sc3ccccc3)ccc2c1-c1c(F)cccc1F` [Compound 17]?
A: IC50 [1]: ≥ 1000 nM; IC50 [2]: ≥ 500 nM; IC50 [3]: ≥ 500 nM

Q: `CC(C)c1ccccc1Sc1ccc2c(-c3c(Cl)cccc3Cl)c(=O)ncn2n1` [Compound 18] was tested. Which IC50 [1] did it give?
A: ≥ 1000 nM

Q: And the IC50 [2]?
A: ≥ 500 nM

Q: What about the IC50 [3] of the same molecule?
A: ≥ 500 nM

Q: For `Cc1ccc(Sc2ccc3c(-c4c(Cl)cccc4Cl)c(=O)ncn3n2)cc1C` [Compound 19], which IC50 [1] is on record?
A: ≥ 1000 nM

Q: What about the IC50 [2] of the same molecule?
A: ≥ 500 nM

Q: What about the IC50 [3] of the same molecule?
A: ≥ 500 nM

Q: Which results are given for `CCc1ccccc1Sc1ccc2c(-c3c(Cl)cccc3Cl)c(=O)ncn2n1` [Compound 20]?
A: IC50 [1]: 100 to 1000 nM; IC50 [2]: ≥ 500 nM; IC50 [3]: ≥ 500 nM

Q: Which results are given for `O=c1ncn2nc(Sc3cccc(F)c3)ccc2c1-c1c(Cl)cccc1Cl` [Compound 21]?
A: IC50 [1]: 100 to 1000 nM; IC50 [2]: 100 to 500 nM; IC50 [3]: ≥ 500 nM

Q: Which results are given for `O=c1ncn2nc(Sc3ccccc3)ccc2c1-c1c(F)cccc1C(F)(F)F` [Compound 22]?
A: IC50 [1]: ≥ 1000 nM; IC50 [2]: ≥ 500 nM; IC50 [3]: ≥ 500 nM

Q: What does the source list for `O=c1ncn2nc(Sc3cccc(Cl)c3)ccc2c1-c1c(Cl)cccc1Cl` [Compound 25]?
A: IC50 [1]: 100 to 1000 nM; IC50 [2]: 100 to 500 nM; IC50 [3]: ≥ 500 nM

Q: With `Cc1cc(Cl)ccc1Sc1ccc2c(-c3c(Cl)cccc3Cl)c(=O)ncn2n1` [Compound 28] as the molecule, how does the IC50 [1] read?
A: 100 to 1000 nM

Q: What about the IC50 [2] of the same molecule?
A: 100 to 500 nM

Q: What about the IC50 [3] of the same molecule?
A: 100 to 500 nM

Q: How did the IC50 [1] turn out when `O=c1ncn2nc(Sc3ccccc3Br)ccc2c1-c1c(Cl)cccc1Cl` [Compound 29] was run?
A: 100 to 1000 nM

Q: And the IC50 [2]?
A: 100 to 500 nM

Q: And the IC50 [3]?
A: 100 to 500 nM

Q: Which results are given for `CN(C)C(=O)c1ccccc1Sc1ccc2c(-c3c(Cl)cccc3Cl)c(=O)ncn2n1` [Compound 31]?
A: IC50 [1]: ≥ 1000 nM; IC50 [2]: ≥ 500 nM; IC50 [3]: ≥ 500 nM

Q: What does the source list for `O=c1ncn2nc(Sc3ccc(F)cc3[N+](=O)[O-])ccc2c1-c1c(Cl)cccc1Cl` [Compound 34]?
A: IC50 [1]: ≥ 1000 nM; IC50 [2]: ≥ 500 nM; IC50 [3]: ≥ 500 nM

Q: What does the source list for `O=c1ncn2nc(Sc3ccc(F)cc3)ccc2c1-c1cc2c(cc1Cl)OCO2` [Compound 39]?
A: IC50 [1]: 100 to 1000 nM; IC50 [2]: ≥ 500 nM; IC50 [3]: ≥ 500 nM

Q: What does the source list for `Cc1nc(=O)c(-c2c(Cl)cccc2Cl)c2ccc(Sc3ccc(F)c(Cl)c3)nn12` [Compound 40]?
A: IC50 [1]: 100 to 1000 nM; IC50 [2]: 100 to 500 nM; IC50 [3]: ≥ 500 nM

Q: With `Cc1cc(Sc2ccc3c(-c4c(Cl)cccc4Cl)c(=O)ncn3n2)c(Cl)cc1F` [Compound 41] as the molecule, how does the IC50 [1] read?
A: ≤ 100 nM

Q: What about the IC50 [2] of the same molecule?
A: ≤ 100 nM

Q: And the IC50 [3]?
A: ≤ 100 nM

Q: How did the IC50 [1] turn out when `COc1cc(Cl)c(-c2c(=O)ncn3nc(Sc4ccc(F)cc4)ccc23)cc1OC` [Compound 43] was run?
A: 100 to 1000 nM

Q: What about the IC50 [2] of the same molecule?
A: ≥ 500 nM

Q: And the IC50 [3]?
A: ≥ 500 nM
